Test results from publication PMC7577125 (Antimicrobial Agents and Chemotherapy, 2020).
Where two headings read alike, the source gives them in different places.

How the values were obtained:
[1] = target: T1, CYP2D6 (Homo sapiens, UniProt P10635); assay: CYP inhibition in human liver microsomes, 2D6; format: in vitro ADME; conditions: 0.1–100 μM
T1 construct: in human liver microsomes; from tissue; host or cells: human liver microsomes

[2] = test system: HBV Cp Y38C; assay: microbe, parasite or virus in culture; format: cell-based, Hepatitis B virus
[3] = in vivo; conditions: male
Protocol: The same solution formulation was administered per os (p.o.) in the same species to determine oral bioavailability.
Pharmacokinetic studies were performed at Wuxi (Shanghai, China) for studies in male mouse, rat, and cynomolgus monkey and at Sai (Pune, India) for studies in male dog. For all oral studies, the formulation was administered in the fasted state (food removed at least 12 h prior to dosing) to groups of 3 per arm.

[4] = test system: HBV; assay: HBV DNA replication in cell culture systems (HepAD38, HepG2-NTCP, PHHs), summary; conditions: Hepatitis B virus, HePAD38, read-out: EC50, inhibition of HBV DNA replication
Excerpt: The first is an HBV-inducible cell line (HepAD38) that bears a single “1.1 copy” of the HBV genome (genotype D, subtype ayw) under the control of a cytomegalovirus (CMV) tetracycline (Tet)-off promoter ([13]), and the second utilizes HBV infection of either a HepG2-derived cell line stably expressing the HBV entry receptor sodium taurocholate cotransporting polypeptide (NTCP) (HepG2-NTCP) or primary human hepatocytes (PHHs). The primary marker measured for inhibition of HBV replication in the cell culture systems is viral DNA.
HepAD38 cells were trypsinized and then washed three times with phosphate-buffered saline (PBS) to remove traces of Tet. Cells were seeded into 96-well plates in assay medium (DMEM–F-12 medium with 2% Tet-free FBS) and treated with compounds. Supernatants and cells were harvested at 5 days postinduction.
HepG2-NCTP cells were infected with purified HepAD38 virus at a multiplicity of infection (MOI) of 50 in infection medium (DMEM, 5% FBS, 2% DMSO, 5% PEG 8000). Following infection, HepG2-NTCP cells were washed twice and switched to HepG2-NTCP treatment medium (DMEM, 5% FBS). PHHs were infected with HBV at an MOI of 50 in infection medium and grown in PHH maintenance medium for the duration of the experiment. Compounds were added after infection. […] Intracellular HBV DNA and pgRNA were measured by branch DNA (bDNA) assays (Thermo Fisher).

[5] = target: HBV Cp (3CA Cp150-BODIPY) (Hepatitis B virus genotype D subtype adw, UniProt P03147, C107A/C48A/C61A/R150C); assay: HBV Cp in vitro assembly assay (fluorescence quenching)
[6] = test system: HBV Cp P25A; assay: microbe, parasite or virus in culture; format: cell-based, Hepatitis B virus
[7] = test system: HBV cccDNA; assay: cccDNA formation assay in infected HepG2-NTCP cells (Southern blot); format: cell-based; conditions: Hepatitis B virus, 96 h, 4 days, read-out: cccDNA % of Control
[8] = test system: HBV Cp Y38F; assay: microbe, parasite or virus in culture; format: cell-based, Hepatitis B virus
[9] = in vitro; conditions: mouse, plasma
[10] = test system: HBV; assay: De novo infection models (HepG2-NTCP and PHH), summary; format: cell-based, Hepatitis B virus; conditions: Hepatitis B virus; range over two de novo infection models; read-out: EC50, suppression of cccDNA formation
[11] = rat, 1 μM
[12] = in vitro; conditions: human, plasma
[13] = test system: HBV; assay: HBV RNA/DNA analyses in induced HepAD38 cells (Northern/Southern blot); format: cell-based, Hepatitis B virus; conditions: for activity at 2 µM: Hepatitis B virus, HePAD38
[14] = test system: HBV genotype B; assay: microbe, parasite or virus in culture; format: cell-based; conditions: Hepatitis B virus, read-out: Mean antiviral EC50
[15] = in vivo
[16] = target: T2, CYP2C9 (Homo sapiens, UniProt P11712); assay: CYP inhibition in human liver microsomes, 2C9; format: in vitro ADME; conditions: 0.1–100 μM
T2 construct: in human liver microsomes; from tissue; host or cells: human liver microsomes

[17] = test system: HBV capsid DNA; assay: Incoming capsid assay in HepG2-NTCP cells; format: cell-based; conditions: Hepatitis B virus, 3 h, read-out: Capsid DNA % of Control
[18] = test system: HBV; assay: Extracellular HBV DNA and pgRNA in HepAD38 cells (qPCR, RT-qPCR); format: cell-based, Hepatitis B virus
Excerpt: For HBV RNA Northern blot analysis, total cellular RNA or encapsidated pgRNA samples were resolved in a 1.5% agarose gel containing 2.2 M formaldehyde and transferred onto a Hybond-XL membrane (GE Healthcare). For DNA Southern blot analysis, HBV core DNA or cccDNA samples were resolved by electrophoresis in a 1.2% agarose gel and blotted onto a Hybond-XL membrane. Membranes were probed with either an [α-^32P]UTP (3,000 Ci/mmol; PerkinElmer)-labeled plus-strand-specific (for Northern blot hybridization) or minus-strand-specific (for Southern blot hybridization) HBV riboprobe and exposed to a phosphorimager screen. Extracellular HBV DNA and RNA were copurified from the culture medium of induced HepAD38 cells by using a MinElute virus vacuum kit (Qiagen). Viral DNA was quantified using the above-mentioned qPCR method directly, and HBV RNA was detected by RT-qPCR with the same core region primer/probe set after the removal of DNA contamination by DNase I (Thermo Fisher) treatment.

[19] = Hepatitis B virus, Huh-7, read-out: Mean EC50
[20] = Sprague-Dawley, rat, iv, 1 mg/kg
[21] = Sprague-Dawley, rat, po, 2 mg/kg
[22] = cynomolgus monkey, iv, 0.5 mg/kg
[23] = HepAD38, concn ETV 0.01, ABI-H0731 2.0, GLS4 0.5, NVR 3-778 2.5, AT-130 0.8, VRD-32 0.8 μM

T2 sequence (P11712 whole entry): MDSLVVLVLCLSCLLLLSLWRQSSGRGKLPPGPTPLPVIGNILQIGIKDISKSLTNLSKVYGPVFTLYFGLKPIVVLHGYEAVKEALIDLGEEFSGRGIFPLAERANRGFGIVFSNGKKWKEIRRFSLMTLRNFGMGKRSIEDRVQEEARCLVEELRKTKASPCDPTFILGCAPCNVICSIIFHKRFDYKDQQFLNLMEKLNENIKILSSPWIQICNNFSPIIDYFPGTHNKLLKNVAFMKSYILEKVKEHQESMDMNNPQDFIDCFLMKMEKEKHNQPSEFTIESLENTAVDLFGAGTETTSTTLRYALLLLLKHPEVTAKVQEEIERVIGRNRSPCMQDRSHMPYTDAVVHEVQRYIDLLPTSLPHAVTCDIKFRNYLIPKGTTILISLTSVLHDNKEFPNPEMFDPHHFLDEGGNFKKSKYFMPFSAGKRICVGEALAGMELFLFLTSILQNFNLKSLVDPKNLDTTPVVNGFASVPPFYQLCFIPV
Sequence of HBV Cp (3CA Cp150-BODIPY) (P03147 1-150 C48A/C61A/C107A/R150C): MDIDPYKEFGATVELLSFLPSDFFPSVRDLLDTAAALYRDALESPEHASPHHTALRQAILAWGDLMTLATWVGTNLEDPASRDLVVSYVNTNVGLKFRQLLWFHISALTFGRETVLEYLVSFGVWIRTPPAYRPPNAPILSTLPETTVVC
T1 sequence (P10635 whole entry): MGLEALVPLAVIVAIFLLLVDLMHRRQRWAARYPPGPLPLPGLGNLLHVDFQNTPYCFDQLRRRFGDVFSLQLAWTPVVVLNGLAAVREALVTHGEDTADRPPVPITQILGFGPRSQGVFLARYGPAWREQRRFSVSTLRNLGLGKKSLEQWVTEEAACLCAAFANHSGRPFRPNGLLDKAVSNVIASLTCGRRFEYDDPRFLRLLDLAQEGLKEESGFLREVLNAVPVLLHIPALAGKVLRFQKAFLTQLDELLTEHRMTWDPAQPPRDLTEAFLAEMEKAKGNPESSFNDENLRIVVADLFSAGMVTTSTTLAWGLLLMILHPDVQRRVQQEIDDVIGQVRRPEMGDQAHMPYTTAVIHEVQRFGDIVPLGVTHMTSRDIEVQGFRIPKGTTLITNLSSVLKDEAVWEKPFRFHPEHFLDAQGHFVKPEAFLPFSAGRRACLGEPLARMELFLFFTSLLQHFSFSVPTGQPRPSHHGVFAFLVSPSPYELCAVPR

SMILES: O=C(NCc1cnc(C(F)(F)F)s1)c1ccc2c(c1)NC(=O)c1ccccc1S2(=O)=O [ABI-H0731]
- IC50 [1]: 29.6 µM
- EC50 [2, 19]: 0.224 ± 0.05 µM
- Fold shift ([2]; Y38C vs wild type): 1.5 fold
- Vd ([3]; CD-1 (mouse), Sprague-Dawley (rat), beagle (dog), cynomolgus monkey, iv): 1.56 to 4.06 L/kg
- Tmax ([3]; CD-1 (mouse), Sprague-Dawley (rat), beagle (dog), cynomolgus monkey, po): 0.7 to 3.3 h
- plasma clearance as % of liver blood flow ([3]; CD-1, mouse, iv): 9%
- AUC(0-inf) ([3]; CD-1, mouse, iv, 1 mg/kg): 2070 ng·h/mL
- T1/2 ([3]; CD-1, mouse, iv, 1 mg/kg): 3.55 h
- Vd ([3]; CD-1, mouse, iv, 1 mg/kg): 2.16 L/kg
- clearance ([3]; CD-1, mouse, iv, 1 mg/kg): 8.05 mL/min/kg
- half-life ([3]; CD-1, mouse, iv, 1 mg/kg, T1/2): 3.6 h
- AUC(0-inf) ([3]; CD-1, mouse, po, 5 mg/kg): 8690 ng·h/mL
- Cmax ([3]; CD-1, mouse, po, 5 mg/kg): 1420 ng/mL
- Tmax ([3]; CD-1, mouse, po, 5 mg/kg): 1 h
- bioavailability ([3]; CD-1, mouse, po, 5 mg/kg): 84%
- half-life ([3]; CD-1, mouse, po, 5 mg/kg, T1/2): 3.03 h
- plasma clearance as % of liver blood flow ([3]; Sprague-Dawley, rat, iv): 16%
- AUC(0-inf) [3, 20]: 1670 ng·h/mL
- T1/2 [3, 20]: 4.92 h
- Vd [3, 20]: 3.47 L/kg
- clearance [3, 20]: 10.1 mL/min/kg
- half-life ([3]; Sprague-Dawley, rat, iv, 1 mg/kg, T1/2): 4.9 h
- AUC(0-inf) [3, 21]: 3160 ng·h/mL
- Cmax [3, 21]: 324 ng/mL
- Tmax [3, 21]: 1 h
- bioavailability [3, 21]: 95%
- half-life ([3]; Sprague-Dawley, rat, po, 2 mg/kg, T1/2): 6.13 h
- plasma clearance as % of liver blood flow ([3]; beagle, dog, iv): 47%
- AUC(0-inf) ([3]; beagle, dog, iv, 2 mg/kg): 2890 ng·h/mL
- T1/2 ([3]; beagle, dog, iv, 2 mg/kg): 2.46 h
- Vd ([3]; beagle, dog, iv, 2 mg/kg): 1.56 L/kg
- clearance ([3]; beagle, dog, iv, 2 mg/kg): 14.7 mL/min/kg
- half-life ([3]; beagle, dog, iv, 2 mg/kg, T1/2): 2.5 h
- bioavailability ([3]; beagle, dog, po): 49%
- AUC(0-inf) ([3]; beagle, dog, po, 3 mg/kg): 2150 ng·h/mL
- Cmax ([3]; beagle, dog, po, 3 mg/kg): 861 ng/mL
- Tmax ([3]; beagle, dog, po, 3 mg/kg): 0.667 h
- half-life ([3]; beagle, dog, po, 3 mg/kg, T1/2): 3.34 h
- plasma clearance as % of liver blood flow ([3]; cynomolgus monkey, iv): 11%
- AUC(0-inf) [3, 22]: 1750 ng·h/mL
- Vd [3, 22]: 4.06 L/kg
- clearance [3, 22]: 4.86 mL/min/kg
- half-life [3, 22]: 12.6 h
- AUC(0-inf) ([3]; cynomolgus monkey, po, 2 mg/kg): 4340 ng·h/mL
- Cmax ([3]; cynomolgus monkey, po, 2 mg/kg): 353 ng/mL
- Tmax ([3]; cynomolgus monkey, po, 2 mg/kg): 3.33 h
- bioavailability ([3]; cynomolgus monkey, po, 2 mg/kg): 55%
- half-life ([3]; cynomolgus monkey, po, 2 mg/kg): 11.6 h
- EC50 [4]: 0.173 to 0.307 µM
- IC50 [5]: 0.267 µM
- EC50 [6, 19]: 0.169 ± 0.041 µM
- Fold shift ([6]; P25A vs wild type): 1.2 fold
- activity at 0.04 µM ([7]; 0.04 μM): 89%
- activity at 0.12 µM ([7]; 0.12 μM): 95%
- activity at […] ([7]; 0.37 μM): 98%
- activity at 1.11 µM ([7]; 1.11 μM): 94%
- activity at 3.33 µM ([7]; 3.33 μM): 86%
- activity at 10 µM ([7]; 10.0 μM): 30%
- EC50 [8, 19]: 0.481 ± 0.034 µM
- Fold shift ([8]; Y38F vs wild type): 3.3 fold
- fraction unbound at 6 h [9]: 0.03 to 0.034
- EC50 [10]: 1.84 to 7.3 µM
- % LBF [11]: 32%
- CLpred [11]: 21 mL/min/kg
- fraction unbound at 6 h, 3 μM [12]: 0.031
- fraction unbound at 6 h, 10 μM [12]: 0.034
- fraction unbound at 6 h, 30 μM [12]: 0.024
- Levels of encapsidated pgRNA by Northern blotting ([13]; HepAD38, 10-fold over VR EC50): virtually undetectable
- rcDNA detection by Southern blot ([13]; HepAD38, 10-fold over VR EC50): could not be detected
- activity at 2 µM ([13]; read-out: Capsid DNA % of Control): 10%
- activity at 2 µM ([13]; read-out: DNA % of Control (extracted HBV DNA replication intermediates)): 1%
- activity at 2 µM ([13]; read-out: Encapsidated pgRNA % of Control): 4%
- EC50 [14]: 0.0855 ± 0.0109 µM
- target organ or dose-limiting toxicities [15]: no specific target organ or dose-limiting toxicities
- IC50 [16]: 30.7 µM
- activity at 0.04 µM ([17]; 0.04 μM): 105%
- activity at 0.12 µM ([17]; 0.12 μM): 107%
- activity at […] ([17]; 0.37 μM): 103%
- activity at 1.11 µM ([17]; 1.11 μM): 91%
- activity at 3.33 µM ([17]; 3.33 μM): 73%
- activity at 10 µM ([17]; 10.0 μM): 10%
- secretion of HBV RNA and DNA in the culture medium ([18]; HepAD38, 10-fold over VR EC50): ≤ 3 % of the DMSO control
- Extracellular DNA content (% of DMSO control) [18, 23]: 1.4 % of DMSO control
- Extracellular pgRNA content (% of DMSO control) [18, 23]: 3.1 % of DMSO control
